This assay has as its system HIV-1 (H9IIIB strain). In words: Cell-based HIV infection assay using a reporter (Cell-Based), MT4-GFP cells. Conditions: 50% normal human serum, mean of at least two independent experiments, read-out: Cell-based IP. As for the experimental part: Cell-Based HIV Infection Assay Using a Reporter (“Cell-Based”):
MT4-GFP cells contain a stably integrated HIV long terminal repeat promoter directing the transcription of green fluorescent protein (GFP). When HIV infects the cell, GFP is produced and the cell becomes green. MT4-GFP cells (250,000 cells/ml) were bulk-infected with HIV-1 (H9IIIB strain) at low multiplicity of infection (MOI) in RPMI media, supplemented with 10% FBS for 24 hours. Cells were then washed once in RPMI plus 10% FBS and resuspended in RPMI plus 50% normal human serum (NHS). Test compounds were serial-diluted in DMSO using an ECHO liquid dispenser. A control well included a combination of three HIV drugs (an inhibitor of HIV protease, integrase strand transfer and a non-nucleoside reverse transcriptase inhibitor; triple drug). The infected MT4-GFP cells were added to a 384-well poly-D-lysine coated black plate with clear bottom in which the diluted test compounds were placed. The cells were seeded in the plate at 8,000 cells per well and the final DMSO concentration was 0.4%. Infected cells were quantified at both 24 and 48 hours post incubation using an Acumen eX3 plate reader. Viral reproductive ratio (R0) was determined using the number of infected cells at 48 hours divided by the number of infected cells at 24 hours. Percent viral growth inhibition was calculated by [1−(R−Rtripledrug)/(RDMSO−Rtripledrug)]*100. Compound potency IP or IC50 was determined with use of a 4-parameter dose response curve analysis.

The mark [1] stands for this setting: Human immunodeficiency virus 1, MT4-GFP cells infected with HIV-1 H9IIIB.

Like-named read-outs stand apart in the source and are kept apart here.

For the molecule `COC(=O)N[C@H](C(=O)Nc1cncc(F)c1CC[C@@H]1CNCCN1S(C)(=O)=O)[C@@H](c1ccc(F)cc1)c1cc(F)cc(F)c1` [Example 49, methyl ((1S,2S)-1-(3,5-difluorophenyl)-3-((5-fluoro-4-(2-((R)-1-(methylsulfonyl)piperazin-2-yl)ethyl)pyridin-3-yl)amino)-1-(4-fluorophenyl)-3-oxopropan-2-yl)carbamate], under setting [1], the IC50 was found to be 1.7 µM.

Regarding `COC(=O)N[C@H](C(=O)Nc1cncc(F)c1CC[C@H]1CNCCN1S(=O)(=O)C1CC1)[C@@H](c1ccc(F)cc1)c1cc(F)cc(F)c1` [Example 50, (βS)-N-(4-{2-[(2S)-1-(cyclopropylsulfonyl)piperazin-2-yl]ethyl}-5-fluoropyridin-3-yl)-3,5-difluoro-β-(4-fluorophenyl)-Nα-(methoxycarbonyl)-L-phenylalaninamide], the IC50 under setting [1] was determined as 0.021 µM.

Regarding `COC(=O)N[C@H](C(=O)Nc1cccc(F)c1CC[C@H]1CNCCN1S(=O)(=O)c1ccccc1)C(c1cc(F)cc(F)c1)c1cc(F)cc(F)c1` [Example 51, β-(3,5-difluorophenyl)-3,5-difluoro-N-(3-fluoro-2-{2-[(2S)-1-(phenylsulfonyl)piperazin-2yl]ethyl}phenyl)-Nα-(methoxycarbonyl)-L-phenylalaninamide], the IC50 under setting [1] turned out to be 0.011 µM. `COC(=O)N[C@H](C(=O)Nc1cccc(F)c1CC[C@H]1CNCCN1S(=O)(=O)c1ccccc1)[C@@H](c1ccc(Cl)cc1)c1cccc(F)c1` [Example 52, (βS)-4-chloro-β-(3-fluorophenyl)-N-(3-fluoro-2-{2-[(2S)-1-(phenylsulfonyl)piperazin-2-yl]ethyl}phenyl)-Nα-(methoxycarbonyl)-L-phenylalaninamide]: under setting [1], the IC50 came to 0.0092 µM. Turning to `COC(=O)N[C@H](C(=O)Nc1cncc(F)c1CC[C@H]1CNCCN1S(=O)(=O)c1ccccc1)[C@@H](c1ccc(Cl)cc1)c1cccc(F)c1` [Example 53, (βS)-4-chloro-β-(3-fluorophenyl)-N-(5-fluoro-4-{2-[(2S)-1-(phenylsulfonyl)piperazin-2-yl]ethyl}pyridin-3-yl)-Nα-(methoxycarbonyl)-L-phenylalaninamide], the IC50 under setting [1] came out at 0.0065 µM. For `COC(=O)N[C@H](C(=O)Nc1cncc(F)c1CC[C@H]1CNCCN1S(=O)(=O)c1ccccc1)C(c1cccc(F)c1)c1cccc(F)c1` [Example 54, 3-fluoro-β-(3-fluorophenyl)-N-(5-fluoro-4-{2-[(2S)-1-(phenylsulfonyl)piperazin-2-yl]ethyl}pyridin-3-yl)-Nα-(methoxycarbonyl)-L-phenylalaninamide], the IC50 under setting [1] worked out at 0.0098 µM.

Turning to `COC(=O)N[C@H](C(=O)Nc1cccc(F)c1CC[C@H]1CNCCN1S(=O)(=O)c1ccccc1)[C@@H](c1ccc(Cl)cc1)c1cncc(F)c1` [Example 55, (βS)-4-chloro-N-(3-fluoro-2-{2-[(2S)-1-(phenylsulfonyl)piperazin-2-yl]ethyl}phenyl)-β-(5-fluoropyridin-3-yl)-Nα-(methoxycarbonyl)-L-phenylalaninamide], the IC50 under setting [1] turned out to be 0.009 µM. With `COC(=O)N[C@H](C(=O)Nc1cncc(F)c1CC[C@H]1CNCCN1S(=O)(=O)c1ccccc1)[C@@H](c1ccc(Cl)cc1)c1cccc(OC(F)(F)F)c1` [Example 56, (βS)-4-chloro-N-(5-fluoro-4-{2-[(2S)-1-(phenylsulfonyl)piperazin-2-yl]ethyl}pyridin-3-yl)-Nα-(methoxycarbonyl)-β-[3-(trifluoromethoxy)phenyl]-L-phenylalaninamide], under setting [1], the IC50 is 0.013 µM. With `COC(=O)N[C@H](C(=O)Nc1cncc(F)c1CC[C@H]1CNCCN1S(=O)(=O)c1ccccc1)[C@@H](c1ccc(Cl)cc1)c1cc(F)cc(F)c1` [Example 57, (βS)-4-chloro-β-(3,5-difluorophenyl)-N-(5-fluoro-4-{2-[(2S)-1-(phenylsulfonyl)piperazin-2-yl]ethyl}pyridin-3-yl)-Nα-(methoxycarbonyl)-L-phenylalaninamide], the IC50 under setting [1] came to 0.0077 µM. On to `COC(=O)N[C@H](C(=O)Nc1cccc(F)c1CC[C@H]1CNCCN1S(=O)(=O)c1ccccc1)[C@@H](c1ccc(Cl)cc1)c1cccc(OC(F)(F)F)c1` [Example 58, (βS)-4-chloro-N-(3-fluoro-2-{2-[(2S)-1-(phenylsulfonyl)piperazin-2-yl]ethyl}phenyl)-Nα-(methoxycarbonyl)-β-[3-(trifluoromethoxy)phenyl]-L-phenylalaninamide], for which the IC50 under setting [1] is 0.042 µM. The same measure, in the same setting: to `COC(=O)N[C@H](C(=O)Nc1cccc(F)c1CC[C@H]1CNCCN1S(=O)(=O)c1ccccc1)[C@@H](c1ccc(Cl)cc1)c1cc(F)cc(F)c1` [Example 59, (βS)-4-chloro-β-(3,5-difluorophenyl)-N-(3-fluoro-2-{2-[(2S)-1-(phenylsulfonyl)piperazin-2-yl]ethyl}phenyl)-Nα-(methoxycarbonyl)-L-phenylalaninamide] belongs 0.029 µM; to `O=C(CC(c1ccc(F)cc1)c1ccc(F)cc1)Nc1cccc(F)c1CC[C@H]1CNCCN1S(=O)(=O)c1ccccc1` [Example 60, 3,3-bis(4-fluorophenyl)-N-(3-fluoro-2-{2-[(2S)-1-(phenylsulfonyl)piperazin-2-yl]ethyl}phenyl)propanamide], 0.027 µM; to `O=C(CC(c1ccc(F)cc1)c1ccc(F)cc1)Nc1cccc(F)c1CC[C@@H]1CNCCN1S(=O)(=O)c1ccccc1` [Example 61, 3,3-bis(4-fluorophenyl)-N-(3-fluoro-2-{2-[(2R)-1-(phenylsulfonyl)piperazin-2-yl]ethyl}phenyl)propanamide], 1.2 µM. On the same count and under the same terms, to `O=C(CC1(c2ccc(Cl)cc2)CCOCC1)Nc1cncc(F)c1CC[C@H]1CNCCN1S(=O)(=O)C1CC1` [Example 62, 2-[4-(4-chlorophenyl)tetrahydro-2H-pyran-4-yl]-N-(4-{2-[(2S)-1-(cyclopropylsulfonyl)piperazin-2-yl]ethyl}-5-fluoropyridin-3-yl)acetamide] belongs 0.52 µM; to `CS(=O)(=O)N1CCNC[C@@H]1CCc1c(F)cccc1NC(=O)[C@@H](N)[C@@H](c1ccc(Cl)cc1)C1CCOCC1` [Example 65, (βR)-4-chloro-N-(3-fluoro-2-{2-[(2S)-1-(methylsulfonyl)piperazin-2-yl]ethyl}phenyl)-β-(tetrahydro-2H-pyran-4-yl)-L-phenylalaninamide], 0.12 µM; to `COC(=O)N[C@H](C(=O)Nc1cccc(F)c1CC[C@H]1CNCCN1S(=O)(=O)c1ccccc1)[C@@H](c1ccc(Cl)cc1)c1cncc(C(F)(F)F)c1` [Example 66, (βS)-4-chloro-N-(3-fluoro-2-{2-[(2S)-1-(phenylsulfonyl)piperazin-2-yl]ethyl}phenyl)-Nα-(methoxycarbonyl)-β-[5-(trifluoromethyl)pyridin-3-yl]-L-phenylalaninamide], 0.012 µM. Turning to `COc1ccc([C@H](c2ccc(Cl)cc2)[C@H](N)C(=O)Nc2cccc(F)c2CC[C@H]2CNCCN2S(=O)(=O)c2ccccc2)cn1` [Example 67, (βS)-4-chloro-N-(3-fluoro-2-{2-[(2S)-1-(phenylsulfonyl)piperazin-2-yl]ethyl}phenyl)-β-(6-methoxypridin-3-yl)-L-phenylalaninamide], under setting [1], the IC50 stood at 0.0058 µM. As to `CN(CC(F)(F)F)S(=O)(=O)N1CCNC[C@@H]1CCc1c(F)cccc1NC(=O)[C@@H](N)C(c1ccc(F)cc1)c1ccc(F)cc1` [Example 68, 4-fluoro-N-[3-fluoro-2-(2-{(2S)-1-[methyl(2,2,2-trifluoroethyl)sulfamoyl]piperazin-2-yl}ethyl)phenyl]-β-(4-fluorophenyl)-L-phenylalaninamide], the IC50 under setting [1] was 1.8 µM. `CN(CC1CC1)S(=O)(=O)N1CCNC[C@@H]1CCc1c(F)cccc1NC(=O)[C@@H](N)C(c1ccc(F)cc1)c1ccc(F)cc1` [Example 69]: the IC50 (MT4-GFP cells infected with HIV-1 H9IIIB) turned out to be 0.36 µM.

Take `N[C@H](C(=O)Nc1cncc(F)c1CC[C@H]1CNCCN1S(=O)(=O)c1ccccc1)C1(c2ccc(Cl)cc2)CCOCC1` [Example 70, (2S)-2-amino-2-[4-(4-chlorophenyl)tetrahydro-2H-pyran-4-yl]-N-(5-fluoro-4-{2-[(2S)-1-(phenylsulfonyl)piperazin-2-yl]ethyl}pyridin-3-yl)ethanamide]: under setting [1], the IC50 is 0.027 µM. With `COC(=O)N[C@H](C(=O)Nc1cncc(F)c1CC[C@H]1CNCCN1S(=O)(=O)c1ccccc1)C1(c2ccc(Cl)cc2)CCOCC1` [Example 71, methyl {(1S)-1-[4-(4-chlorophenyl)tetrahydro-2H-pyran-4-yl]-2-[(5-fluoro-4-{2-[(2S)-1-(phenylsulfonyl)piperazin-2-yl]ethyl}pyridin-3-yl)amino]-2-oxoethyl} carbamate], the IC50 under setting [1] was found to be 0.011 µM. As for `N[C@H](C(=O)Nc1cccc(F)c1CC[C@H]1CNCCN1S(=O)(=O)c1ccccc1)[C@H](CCC1CCOCC1)c1ccc(Cl)c(F)c1` [Example 72, (βR)-4-chloro-3-fluoro-N-(3-fluoro-2-{2-[(2S)-1-(phenylsulfonyl)piperazin-2-yl]ethyl}phenyl)-β-[2-(tetrahydro-2H-pyran-4-yl)ethyl]-L-phenylalaninamide], the IC50 under setting [1] was 0.021 µM.

For the origin of these results see US9840478B2 (MERCK SHARP & DOHME CORP., priority 2013, dated 2017).
